Reference: ChEMBL document CHEMBL1154786, “Analgesic, anticonvulsant and anti-inflammatory activities of some synthesized benzodiazipine, triazolopyrimidine and bis-imide derivatives” (Eur J Med Chem, 2009)
Calls of active or inactive are those of the source. No cut-off for these calls is given here.

How the values were obtained:
Rattus norvegicus [1] = test: Antiinflammatory activity in albino rat assessed as inhibition of increase in plasma PGE2 level at 25 mg/kg, po by EIA; type: functional
[2] = Acute toxicity in rat; type: organism-based; details: in vivo
Mus musculus [3] = test: Analgesic activity in Webster mouse assessed as normal reaction time at 5 mg/kg, sc after 10-120 mins by hot plate assay relative to valdecoxib; type: functional; details: route subcutaneous
Mus musculus [4] = test: Anticonvulsant activity in Webster mouse assessed as protection against yohimbine-HCl-induced clonic seizure at 5 mg/kg, ip administered 30 mins before yohimbine-HCl challenge relative to carbamazepine; type: functional
Rattus norvegicus [5] = test: Antiinflammatory activity in albino rat assessed as protection against carrageenan-induced paw edema at 50 mg/kg, po administered 1 hr before carrageenan challenge measured after 4 hrs; type: functional
Mus musculus [6] = test: Anticonvulsant activity in Webster mouse assessed as protection against yohimbine-HCl-induced clonic seizure at 5 mg/kg, ip administered 30 mins before yohimbine-HCl challenge; type: functional
Rattus norvegicus [7] = test: Antiinflammatory activity in albino rat assessed as inhibition of increase in plasma PGE2 level at 50 mg/kg, po by EIA; type: functional
Rattus norvegicus [8] = test: Antiinflammatory activity in albino rat assessed as protection against carrageenan-induced paw edema at 25 mg/kg, po administered 1 hr before carrageenan challenge measured after 4 hrs; type: functional

| Structure (SMILES) | inhibition in vivo at 25 mg/kg (Rattus norvegicus [1]) | LD50 [2] | Activity (Mus musculus [3]) | Activity (Mus musculus [4]; route intraperitoneal) | Activity (Rattus norvegicus [5]) | ED50 (Mus musculus [6]; route intraperitoneal) | inhibition in vivo at 50 mg/kg (Rattus norvegicus [7]) | Activity (Rattus norvegicus [8]) | Activity (Mus musculus [4]) | ED50 (Mus musculus [6]) |
| --- | --- | --- | --- | --- | --- | --- | --- | --- | --- | --- |
| CC1=CC(c2ccccc2)NC(=S)N1 (stereo not given) | 78.4% | 1.8 mg/kg | 130% | 1 | 96.1% | 32 mg/kg | 93.5% | 84.52% |  |  |
| CC1=CC(c2ccccc2)N=C(NN2C(=O)c3cccc4cccc(c34)C2=O)N1 (stereo not given) | 88.7% | 1.85 mg/kg | 60% |  | 93.15% |  | 95.6% | 87.8% | inactive | inactive |
| CC1=CC(c2ccccc2)N=C(NN2C(=O)c3ccc4c5c(ccc(c35)C2=O)C(=O)N(NC2=NC(c3ccccc3)C=C(C)N2)C4=O)N1 (stereo not given) | 58.8% | 1.78 mg/kg | 60% | 1.8 | 51.6% | 15 mg/kg | 65% | 48.5% |  |  |
| CC1=CC(c2ccccc2)NC(NN)N1 (stereo not given) |  | 1.88 mg/kg |  |  |  |  |  |  |  |  |
| CC1=Cc2c(c(=O)[nH]n2-c2ccccc2)C(c2ccccc2)C1 (stereo not given) | 54.9% | 1.86 mg/kg | 60% |  | 64.8% |  | 67% | 63.9% | inactive | inactive |
| CC1=CC(c2ccccc2)Nc2nnc(C)n21 (stereo not given) |  | 1.97 mg/kg |  |  |  |  |  |  |  |  |
| CC1=CC(c2ccccc2)N=C(Nn2c(=O)c3cc4c(=O)n(NC5=NC(c6ccccc6)C=C(C)N5)c(=O)c4cc3c2=O)N1 (stereo not given) |  | 1.68 mg/kg |  |  |  |  |  |  |  |  |
| CC1=Cc2c(c(C)nn2-c2ccccc2)C(c2ccccc2)C1 (stereo not given) |  | 1.92 mg/kg |  |  |  |  |  |  |  |  |
| CC1=CC(c2ccccc2)NC(=S)N1CN1CCOCC1 (stereo not given) | 90.3% | 1.69 mg/kg | 60% | 2.3 | 98.41% | 13 mg/kg |  | 85.84% |  |  |
| CC1=CC2=NC(=S)NC(=O)C2C(c2ccccc2)C1 (stereo not given) | 72.1% | 1.88 mg/kg | 130% | 2.04 | 85.24% | 15 mg/kg | 82.8% | 74.38% |  |  |
| CC1=CC(c2ccccc2)Nc2n[nH]c(=S)n21 (stereo not given) |  | 1.8 mg/kg |  |  | 42.38% |  | 66.8% |  | inactive | inactive |
| CC1=CC(c2ccccc2)N=C(n2cc(C)c(C)n2)N1 (stereo not given) |  | 1.79 mg/kg |  |  |  |  |  |  |  |  |
| NC(=O)N1c2ccccc2C=Cc2ccccc21 [CARBAMAZEPINE] |  |  |  |  |  | 28 mg/kg |  |  |  |  |
| CCOC(=O)C1C(=O)C=C(C)CC1c1ccccc1 (stereo not given) |  | 1.74 mg/kg | 60% | 0.68 | 60.26% | 50 mg/kg | 54.5% |  |  |  |
| C[C@]12C=CC(=O)C=C1CC[C@@H]1[C@@H]2[C@@H](O)C[C@@]2(C)[C@H]1CC[C@]2(O)C(=O)CO [PREDNISOLONE] | 77% | 1.62 mg/kg |  |  | 92% |  | 91% | 81% |  |  |
| CC1=CC(c2ccccc2)Nc2ncnn21 (stereo not given) | 80.7% | 1.75 mg/kg | 60% | 2.51 | 96.05% | 10 mg/kg | 94.6% | 85.25% |  |  |
| CC1=Cc2[nH]c(=S)nc(C)c2C(c2ccccc2)C1 (stereo not given) |  | 1.87 mg/kg | 60% |  |  |  |  |  |  |  |
| CC(=O)C1C(=O)C=C(C)CC1c1ccccc1 (stereo not given) |  | 1.72 mg/kg |  |  |  |  |  |  |  |  |
